Assay results from PubChem BioAssay (NCI).
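48-hour exposure; five concentrations; linearly interpolated endpoints. GI50 is the concentration that inhibits growth by half. The concentration for full growth arrest is given as TGI.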

Key:
Test in all cases: DTP human tumour cell line panel, 48 h
[1] = tested on: 786-0 renal
[2] = tested on: A498 renal
[3] = tested on: A549 NSCLC
[4] = tested on: ACHN renal
[5] = tested on: BT-549 breast
[6] = tested on: CAKI-1 renal
[7] = tested on: CCRF-CEM leukemia
[8] = tested on: COLO 205 colon
[9] = tested on: DU-145 prostate
[10] = tested on: HCC-2998 colon
[11] = tested on: HCT-116 colon
[12] = tested on: HCT-15 colon
[13] = tested on: HL-60(TB) leukemia
[14] = tested on: HOP-62 NSCLC
[15] = tested on: HOP-92 NSCLC
[16] = tested on: HS 578T breast
[17] = tested on: HT29 colon
[18] = tested on: IGROV1 ovarian
[19] = tested on: K-562 leukemia
[20] = tested on: KM12 colon
[21] = tested on: LOX IMVI melanoma
[22] = tested on: M14 melanoma
[23] = tested on: MALME-3M melanoma
[24] = tested on: MCF7 breast
[25] = tested on: MDA-MB-231 breast
[26] = tested on: MDA-MB-435
[27] = tested on: MOLT-4 leukemia
[28] = tested on: NCI-H226 lung
[29] = tested on: NCI-H23 lung
[30] = tested on: NCI-H460 lung
[31] = tested on: NCI-H522 lung
[32] = tested on: NCI/ADR-RES ovarian
[33] = tested on: OVCAR-3 ovarian
[34] = tested on: OVCAR-4 ovarian
[35] = tested on: OVCAR-5 ovarian
[36] = tested on: OVCAR-8 ovarian
[37] = tested on: PC-3 prostate
[38] = tested on: RPMI-8226 leukemia
[39] = tested on: RXF 393 renal
[40] = tested on: SF-268 CNS
[41] = tested on: SF-295 CNS
[42] = tested on: SF-539 CNS
[43] = tested on: SK-MEL-2 melanoma
[44] = tested on: SK-MEL-28 melanoma
[45] = tested on: SK-MEL-5 melanoma
[46] = tested on: SK-OV-3 ovarian
[47] = tested on: SN12C renal
[48] = tested on: SNB-19 CNS
[49] = tested on: SNB-75 CNS
[50] = tested on: SR leukemia
[51] = tested on: SW-620 colon
[52] = tested on: T-47D breast
[53] = tested on: TK-10 renal
[54] = tested on: U251 CNS
[55] = tested on: UACC-257 melanoma
[56] = tested on: UACC-62 melanoma
[57] = tested on: UO-31 renal

CNCCCn1cc(C2=C(c3cn(C)c4ccccc34)C(=O)NC2=O)c2ccccc21
GI50 [1]: 4.77 µM | TGI [1]: 11.3 µM | GI50 [2]: 4.29 µM | TGI [2]: 8.35 µM | GI50 [3]: 4.09 µM | TGI [3]: 10.8 µM | GI50 [4]: 3.99 µM | TGI [4]: 13.9 µM | GI50 [5]: 4.81 µM | TGI [5]: 8.83 µM | GI50 [6]: 4.13 µM | TGI [6]: 13.2 µM | GI50 [7]: 4.91 µM | TGI [7]: 20.4 µM | GI50 [8]: 1.95 µM | TGI [8]: 5.52 µM | GI50 [9]: 5.35 µM | TGI [9]: 16.1 µM | GI50 [10]: 5.13 µM | TGI [10]: 11.7 µM | GI50 [11]: 3.17 µM | TGI [11]: 12.3 µM | GI50 [12]: 6.04 µM | TGI [12]: 22.7 µM | GI50 [13]: 5.55 µM | TGI [13]: 13.5 µM | GI50 [14]: 5.59 µM | TGI [14]: 13.4 µM | GI50 [15]: 2.63 µM | TGI [15]: 10.1 µM | GI50 [16]: 2.06 µM | TGI [16]: 9.64 µM | GI50 [17]: 1.14 µM | TGI [17]: 12.2 µM | GI50 [18]: 5.41 µM | TGI [18]: 11.4 µM | GI50 [19]: 3.46 µM | TGI [19]: 14.2 µM | GI50 [20]: 3.89 µM | TGI [20]: 8.39 µM | GI50 [21]: 3.93 µM | TGI [21]: 8.28 µM | GI50 [22]: 4.17 µM | TGI [22]: 7.98 µM | GI50 [23]: 5.37 µM | TGI [23]: 10.4 µM | GI50 [24]: 2.74 µM | TGI [24]: 6.93 µM | GI50 [25]: 5.32 µM | TGI [25]: 15.1 µM | GI50 [26]: 3.31 µM | TGI [26]: 6.9 µM | GI50 [27]: 5 µM | TGI [27]: 19.1 µM | GI50 [28]: 6.2 µM | TGI [28]: 22.8 µM | GI50 [29]: 5.21 µM | TGI [29]: 13.2 µM | GI50 [30]: 4.53 µM | TGI [30]: 9.19 µM | GI50 [31]: 4.01 µM | TGI [31]: 8.71 µM | GI50 [32]: 14.1 µM | TGI [32]: 25 µM | GI50 [33]: 5.14 µM | TGI [33]: 13.8 µM | GI50 [34]: 3.06 µM | TGI [34]: 14.1 µM | GI50 [35]: 7.65 µM | TGI [35]: 20.7 µM | GI50 [36]: 4.99 µM | TGI [36]: 12.6 µM | GI50 [37]: 4.01 µM | TGI [37]: 14.6 µM | GI50 [38]: 5.12 µM | TGI [38]: 11.7 µM | GI50 [39]: 3.48 µM | TGI [39]: 6.95 µM | GI50 [40]: 5.24 µM | TGI [40]: 12 µM | GI50 [41]: 4.73 µM | TGI [41]: 10.3 µM | GI50 [42]: 3.59 µM | TGI [42]: 7.06 µM | GI50 [43]: 4.3 µM | TGI [43]: 8.52 µM | GI50 [44]: 3.85 µM | TGI [44]: 7.8 µM | GI50 [45]: 3.77 µM | TGI [45]: 7.3 µM | GI50 [46]: 4.26 µM | TGI [46]: 22.5 µM | GI50 [47]: 4.86 µM | TGI [47]: 18.4 µM | GI50 [48]: 6.29 µM | TGI [48]: 22.7 µM | GI50 [49]: 0.281 µM | TGI [49]: 2.95 µM | GI50 [50]: 3.94 µM | TGI [50]: 16.2 µM | GI50 [51]: 3.72 µM | TGI [51]: 8.13 µM | GI50 [52]: 5.66 µM | TGI [52]: 15.1 µM | GI50 [53]: 4.16 µM | TGI [53]: 10.7 µM | GI50 [54]: 3.14 µM | TGI [54]: 6.96 µM | GI50 [55]: 4.57 µM | TGI [55]: 8.81 µM | GI50 [56]: 3.96 µM | TGI [56]: 7.67 µM | GI50 [57]: 3.58 µM | TGI [57]: 11.8 µM
